In patent US20250034136A1 (Nimbus Wadjet, Inc., priority 2023, published 2025):

Experiments:
[1] = system: p21 induction in HCT116 cells; experiment: p21 induction in HCT116 cells; format: cell-based; details: Homo sapiens, HCT-116, 24 h, HCT116 cells, 24 h compound incubation; read-out: P21_EC50
How it was run: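 EC50 from non-linear curve fit of p21 immunofluorescence (800 nm), with GAPDH (700 nm) read alongside. DMSO and a reference WRN inhibitor served as low and high controls. Cells (2,000/well) got 11 compound concentrations in duplicate for 24 h at 37 °C.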

[2] = molecular target: WRN (BV08), human Werner helicase (Uniprot Q14191, amino acids 517-1235 with L1074F point mutation) (Homo sapiens (Human), UniProt Q14191, L1074F); experiment: WRN (BV08) ADP-Glo assay; format: biochemical; details: class symbols A-E, read-out: ADP-Glo_hWRN_IC50
WRN (BV08), human Werner helicase (Uniprot Q14191, amino acids 517-1235 with L1074F point mutation), sequence (Q14191 other isoform, or with tags, fused parts or gaps L1074F (already in the parent)): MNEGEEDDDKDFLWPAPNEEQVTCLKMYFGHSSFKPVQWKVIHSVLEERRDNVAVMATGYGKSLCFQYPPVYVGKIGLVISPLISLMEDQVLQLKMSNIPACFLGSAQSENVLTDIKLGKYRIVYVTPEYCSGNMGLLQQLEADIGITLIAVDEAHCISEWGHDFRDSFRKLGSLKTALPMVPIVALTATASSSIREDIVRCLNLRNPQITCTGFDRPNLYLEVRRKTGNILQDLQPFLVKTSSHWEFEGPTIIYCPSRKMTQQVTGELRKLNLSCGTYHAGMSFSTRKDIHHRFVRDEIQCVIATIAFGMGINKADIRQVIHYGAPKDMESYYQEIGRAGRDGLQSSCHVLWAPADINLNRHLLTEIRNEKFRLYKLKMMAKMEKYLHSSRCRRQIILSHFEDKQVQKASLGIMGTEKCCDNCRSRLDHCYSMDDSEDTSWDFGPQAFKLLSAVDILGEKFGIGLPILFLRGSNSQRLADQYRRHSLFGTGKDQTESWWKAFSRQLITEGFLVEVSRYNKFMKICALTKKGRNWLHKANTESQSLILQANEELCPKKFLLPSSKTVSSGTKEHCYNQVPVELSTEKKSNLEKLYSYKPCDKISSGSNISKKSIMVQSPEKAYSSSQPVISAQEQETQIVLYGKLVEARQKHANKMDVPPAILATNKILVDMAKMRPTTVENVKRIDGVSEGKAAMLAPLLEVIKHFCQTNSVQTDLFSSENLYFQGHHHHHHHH

An EC50 [1] of under 500 nM and an IC50 [2] of 5 to 50 nM were found for `CCc1c(N2CCN(C(=O)c3ncnc(C)c3O)[C@@H]3CCC[C@@H]32)c(=O)c2nc(N(C)C)cnc2n1CC(=O)Nc1ccc(C(F)(F)F)cc1Cl` (single isomer, unassigned) [I-209, N-(2-chloro-4-(trifluoromethyl)phenyl)-2-(2-(dimethylamino)-6-ethyl-7-(4-(5-hydroxy-6-methylpyrimidine-4-carbonyl)octahydro-1H-cyclopenta[b]pyrazin-1-yl)-8-oxopyrido[2,3-b]pyrazin-5(8H)-yl)acetamide] in this work.

An EC50 [1] of over 5000 nM and an IC50 [2] of 5 to 50 nM were found for `CCc1c(N2CCN(C(=O)c3cccc4oc(=O)[nH]c34)CC2)c(=O)c2ncc(C)nc2n1CC(=O)Nc1ccc(C(F)(F)F)cc1Cl` [I-70, N-(2-chloro-4-(trifluoromethyl)phenyl)-2-(6-ethyl-3-methyl-8-oxo-7-(4-(2-oxo-2,3-dihydrobenzo[d]oxazole-4-carbonyl)piperazin-1-yl)pyrido[2,3-b]pyrazin-5(8H)-yl)acetamide] in this work.

An EC50 [1] of under 500 nM and an IC50 [2] of 5 to 50 nM were found for `CCc1c(N2CCN(C(=O)c3ncnc(C)c3O)CC2)c(=O)c2nc3cc(C)oc3nc2n1CC(=O)Nc1ccc(C(F)(F)F)cc1Cl` [I-112, N-(2-chloro-4-(trifluoromethyl)phenyl)-2-(7-ethyl-6-(4-(5-hydroxy-6-methylpyrimidine-4-carbonyl)piperazin-1-yl)-2-methyl-5-oxofuro[2,3-b]pyrido[3,2-e]pyrazin-8(5H)-yl)acetamide] in this work.

An EC50 [1] of over 5000 nM and an IC50 [2] of 100 to 500 nM were found for `CCc1c(N2CC3CC2CN3C(=O)c2ncnc(C)c2O)c(=O)c2nc(N(C)C)cnc2n1CC(=O)Nc1ccc(C(F)(F)F)cc1Cl` (stereo not drawn) [I-258, N-[2-chloro-4-(trifluoromethyl)phenyl]-2-[2-(dimethylamino)-6-ethyl-7-[5-(5-hydroxy-6-methylpyrimidine-4-carbonyl)-2,5-diazabicyclo[2.2.1]heptan-2-yl]-8-oxo-5H,8H-pyrido[2,3-b]pyrazin-5-yl]acetamide] in this work.

An EC50 [1] of over 5000 nM and an IC50 [2] of 5 to 50 nM were found for `CCc1c(N2CCN(C(=O)c3ncnc(C)c3O)CC2)c(=O)c2nc(NC(C)=O)cnc2n1CC(=O)Nc1ccc(C(F)(F)F)cc1Cl` [I-31, 2-(2-acetamido-6-ethyl-7-(4-(5-hydroxy-6-methylpyrimidine-4-carbonyl)piperazin-1-yl)-8-oxopyrido[2,3-b]pyrazin-5(8H)-yl)-N-(2-chloro-4-(trifluoromethyl)phenyl)acetamide] in this work.

An EC50 [1] of 2000 to 5000 nM and an IC50 [2] of 5 to 50 nM were found for `CCc1c(N2CCN(C(=O)c3ncnc(C)c3O)CC2)c(=O)c2nc(N(C)C3CC(C)(O)C3)cnc2n1CC(=O)Nc1ccc(C(F)(F)F)cc1Cl` (stereo not drawn) [I-59, N-(2-chloro-4-(trifluoromethyl)phenyl)-2-(6-ethyl-2-((3-hydroxy-3-methylcyclobutyl)(methyl)amino)-7-(4-(5-hydroxy-6-methylpyrimidine-4-carbonyl)piperazin-1-yl)-8-oxopyrido[2,3-b]pyrazin-5(8H)-yl)acetamide] in this work.

An EC50 [1] of over 5000 nM and an IC50 [2] of 5 to 50 nM were found for `CCc1c(C2CCN(C(=O)c3ncnc(C)c3O)CC2)c(=O)c2nc(N(C)C)cnc2n1CC(=O)Nc1ccc(C(F)(F)F)cc1Cl` [I-221, N-[2-chloro-4-(trifluoromethyl)phenyl]-2-[2-(dimethylamino)-6-ethyl-7-[1-(5-hydroxy-6-methylpyrimidine-4-carbonyl)piperidin-4-yl]-8-oxo-5H,8H-pyrido[2,3-b]pyrazin-5-yl]acetamide] in this work.

An EC50 [1] of 500 to 2000 nM and an IC50 [2] of 5 to 50 nM were found for `CCc1c([C@@]23CCN(C(=O)c4ncnc(C)c4O)C[C@@H]2C3)c(=O)c2nc(N(C)C)cnc2n1CC(=O)Nc1ccc(C(F)(F)F)cc1Cl` (single isomer, unassigned) [I-276, N-(2-chloro-4-(trifluoromethyl)phenyl)-2-(2-(dimethylamino)-6-ethyl-7-(3-(5-hydroxy-6-methylpyrimidine-4-carbonyl)-3-azabicyclo[4.1.0]heptan-6-yl)-8-oxopyrido[2,3-b]pyrazin-5(8H)-yl)acetamide] in this work.

An EC50 [1] of under 500 nM and an IC50 [2] of 5 to 50 nM were found for `CCc1c(N2CCN(C(=O)c3ncnc(C)c3O)[C@H]3CC[C@@H]32)c(=O)c2nc(N3CCCC3)cnc2n1CC(=O)Nc1ccc(C(F)(F)F)cc1Cl` [I-105, N-(2-chloro-4-(trifluoromethyl)phenyl)-2-(6-ethyl-7-((1S,6S)-5-(5-hydroxy-6-methylpyrimidine-4-carbonyl)-2,5-diazabicyclo[4.2.0]octan-2-yl)-8-oxo-2-(pyrrolidin-1-yl)pyrido[2,3-b]pyrazin-5(8H)-yl)acetamide] in this work.

An EC50 [1] of over 5000 nM and an IC50 [2] of 100 to 500 nM were found for `CCc1c(N2C[C@H]3C[C@@H]2CN3C(=O)c2ncnc(C)c2O)c(=O)c2nc(N(C)C)cnc2n1CC(=O)Nc1ccc(C(F)(F)F)cc1Cl` (single isomer, unassigned) [I-256] in this work.

An EC50 [1] of 500 to 2000 nM and an IC50 [2] of 5 to 50 nM were found for `CCc1c(N2CCN(C(=O)c3cc(C)cnc3OC)[C@H]3CC[C@@H]32)c(=O)c2nc(N(C)C)cnc2n1CC(=O)Nc1ccc(C(F)(F)F)cc1Cl` [I-259, N-[2-chloro-4-(trifluoromethyl)phenyl]-2-[2-(dimethylamino)-6-ethyl-7-[(1S,6S)-5-(2-methoxy-5-methylpyridine-3-carbonyl)-2,5-diazabicyclo[4.2.0]octan-2-yl]-8-oxo-5H,8H-pyrido[2,3-b]pyrazin-5-yl]acetamide] in this work.

An EC50 [1] of over 5000 nM and an IC50 [2] of 5 to 50 nM were found for `CCc1c(N2CCN(C(=O)c3ncnc(C)c3O)CC2)c(=O)c2nc(N3CCC(C)(O)C3)cnc2n1CC(=O)Nc1ccc(C(F)(F)F)cc1Cl` (stereo not drawn) [I-47, N-(2-chloro-4-(trifluoromethyl)phenyl)-2-(6-ethyl-2-(3-hydroxy-3-methylpyrrolidin-1-yl)-7-(4-(5-hydroxy-6-methylpyrimidine-4-carbonyl)piperazin-1-yl)-8-oxopyrido[2,3-b]pyrazin-5(8H)-yl)acetamide] in this work.

An EC50 [1] of over 5000 nM and an IC50 [2] of 5 to 50 nM were found for `CCc1c(N2CCN(C(=O)c3ncnc(C)c3O)CC2)c(=O)c2nc(C3CC3(F)F)cnc2n1CC(=O)Nc1ccc(C(F)(F)F)cc1Cl` (stereo in doubt) [I-237, N-[2-chloro-4-(trifluoromethyl)phenyl]-2-{2-[(1R)-2,2-difluorocyclopropyl]-6-ethyl-7-[4-(5-hydroxy-6-methylpyrimidine-4-carbonyl)piperazin-1-yl]-8-oxo-5H,8H-pyrido[2,3-b]pyrazin-5-yl}acetamide] in this work.

An EC50 [1] of over 5000 nM and an IC50 [2] of 5 to 50 nM were found for `CCc1c(N2CCN(C(=O)c3ncnc(C)c3O)CC2)c(=O)c2nc(C3=CCOCC3)cnc2n1CC(=O)Nc1ccc(C(F)(F)F)cc1Cl` [I-82, N-(2-chloro-4-(trifluoromethyl)phenyl)-2-(2-(3,6-dihydro-2H-pyran-4-yl)-6-ethyl-7-(4-(5-hydroxy-6-methylpyrimidine-4-carbonyl)piperazin-1-yl)-8-oxopyrido[2,3-b]pyrazin-5(8H)-yl)acetamide] in this work.

An EC50 [1] of under 500 nM and an IC50 [2] of 5 to 50 nM were found for `CCc1c(N2CCN(C(=O)c3ncnc(C)c3O)[C@H]3CC[C@@H]32)c(=O)c2nc(N(C)CCOC)cnc2n1CC(=O)Nc1ccc(C(F)(F)F)cc1Cl` [I-255, N-[2-chloro-4-(trifluoromethyl)phenyl]-2-{6-ethyl-7-[(1S,6S)-5-(5-hydroxy-6-methylpyrimidine-4-carbonyl)-2,5-diazabicyclo[4.2.0]octan-2-yl]-2-[(2-methoxyethyl)(methyl)amino]-8-oxo-5H,8H-pyrido[2,3-b]pyrazin-5-yl}acetamide] in this work.
